Laboratory results as given in patent US6664231B1, “Anti-fungal peptides” (priority 1993, dated 2003).
Like-named read-outs stand apart in the source and are kept apart here. Square brackets hold non-standard residues; d marks the D form. Ends that are not written are not given here. Peptide text beside a SMILES is read from it. * marks the point of attachment. Phe(4-NH2) = Nc1ccc(C[C@H](N)C(=O)O)cc1; d2Nal = N[C@H](Cc1ccc2ccccc2c1)C(=O)O; Octanoyl = CCCCCCCC(=O)*; Orn = NCCC[C@H](N)C(=O)O; Dab = NCC[C@H](N)C(=O)O

How the values were obtained:
in vitro = in vitro ADME, rat or human serum; details: serum, half-life of peptide in serum as detected by HPLC analysis; read-out: HPLC Peptide in Serum t ½ (converted)
Protocol: (§1) For these serum stability experiments, peptides were prepared by solid phase peptide sythesis and purified to 94% or greater purity as described in Example 1. Blood was collected from metaphane anesthesized rats by aortic bleed into Vacutainer™ tubes and allowed to clot at room temperature for approximately 30 minutes, then centrifuged at 3000 rpm (about 1000×g) for 10 minutes at room temperature and the serum aspirated. In addition, frozen human serum (North American Biologics, Inc., Miami, Fla., cat. no. 2140, lot no. 94115) was thawed at room temperature and filtered through a 0.45 μm membrane before use.
(§2) A 1 mg/mL solution of an exemplary XMP peptide to be tested was added to an equal volume of either rat or human serum described above and maintained at 37° C. At 0, 1, 2, and 4 hours, 100 μL were removed and processed by solid phase extraction for HPLC analysis as follows. Serum samples were prepared for HPLC using C-18 Sep-Pak cartridges (1 mL cartridge with 100 mg of sorbent, Waters Corp., Milford, Mass.). One hundred μL of serum sample were added to an equal volume of 1% TFA and mixed for 30 seconds on a Vortex mixer. The sample was then applied to a C-18 Sep-Pak cartridge that had been conditioned by washing with 1 mL of methanol followed by 1 mL Milli-Q water. Weakly reed components were eluted by washing with 1 mL of 0. 1% TFA. The bound peptide was eluted with two volumes of 250 μL 80% acetonitrile/0.065% TFA.
The material eluted from the Sep-Pak cartridge was analyzed on a Michrom Ultaafast Microprotein Analyzer equipped with a 150 mm×1 mm, 5μ particle, 300 Å pore C-8 Zorbax column. The column oven was set to 40° C., the flow rate was 100 μL/minute, and injection volumes were typically 5-10 μL. HPLC was performed using 5% acetonitrile/0.1% TFA in water as mobile phase A, and 80% acetonitrile/0.065% TFA as mobile phase B. The eluate was monitored spectiophotometrically at 214 nm. Peptide standards were dissolved in mobile phase A at 0. 1 mg/mL. The gradient was 25-35% B/10 minutes followed by a 5 minute wash step of 100% B and reequilibration at 25% B for 10 minutes.

[1] = Serum stability, anti-fungal activity after serum incubation by radial diffusion bioassay; format: in vitro ADME, rat or human serum; details: Activity in Serum t ½ (hr.)
Protocol: as §1, §2
The peptides identified and purified after serum incubation as described above were subjected to N-terminal peptide sequencing performed on an Applied Biosystems Model 477A/120A sequencer and to electrospray ionization mass spectrometry (ESI/MS) performed using a VG Biotech Bio-Q Mass Spectrometer. In addition, the peptides identified and purified after serum incubation as described above were also tested for their anti-fungal activity in a radial diffusion bioassay with Candida albicans SLU-1 strain as described in Example 2.

[2] = system: C. albicans (CA-1, Strain SLU-1); assay: Radial diffusion assay; format: cell-based, Candida albicans; details: pmoles of peptide added to well to achieve a 30 mm^2 zone, PROBIT analysis, crude or purified (P′) peptide
In short: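 Peptides, serially diluted 2-fold in D-PBS (top ~1 mg/mL), diffused 3 h at 37° C into pH 7.4 phosphate-buffered agarose seeded with 1×10^6 CFU/mL yeast, before overnight growth under a 6% Sabouraud overlayer. Net inhibition zones measured after Coomassie staining; PROBIT fit of log pmol vs area gave pmol for 30 mm^2.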

[3] = system: mouse RAW 264.7 cells incubated with E. coli O113 LPS; details: RAW 264.7 cells with E. coli O113 LPS; concentration reversing LPS growth inhibition by 50%
Protocol: (§3) An in vitro LPS neutralization screening assay for evaluation of Domain III derived peptides was developed (as described in co-owned and co-pending U.S. patent application Ser. No. 08/306,473) which provides both a measure of efficacy of each peptide (EC50) and of the toxicity/growth inhibition of each peptide (IC50).
(§4) The cells were counted and their concentration adjusted to 2×10^5 cells/mL and 100 μL aliquots were added to each well of a 96-well microtitre plate. […] This incubation was performed in the absence or presence of peptides in varying concentrations between 25 ng/mL and 50 μg/mL. […] Cell proliferation was quantitatively measured by the addition of 1 μCi/well [^3H]-thymidine 5 hours after the time of initiation of the assay. After the 15-hour incubation, labeled cells were harvested onto glass fiber filters with a cell harvester (Inotech Biosystems, INB-384, Sample Processing and Filter Counting System, Lansing, Mich.).

mouse RAW 264.7 cells = system: mouse RAW 264.7 cells
Protocol: as §3, §4

[4] = RAW 264.7 cell growth inhibited by 50%

Compound	half-life at 0.5 mg/mL [1] [h]	C. albicans pmol/30 mm^2 zone [2]	In Vitro LPS Neutralization EC50 [3]	further results
CC[C@H](C)[C@H](NC(=O)[C@H](CC(C)C)NC(=O)[C@@H](Cc1ccc2ccccc2c1)NC(=O)[C@H](CCCCN)NC(=O)[C@@H](N)CCCCN)C(=O)N[C@@H](CC(C)C)C(=O)N[C@@H](CC(C)C)C(=O)N[C@@H](CCCCN)C(=O)N[C@@H](CCCCN)C(N)=O [XMP.347] (H-KK[d2Nal]LILLKK-NH2)	5.2	391 pmol/30 mm^2 zone	–	half-life at 0.5 mg/mL (in vitro): 2.5 h
Ac-PWLIQLFHKK-NH2 [XMP.356]	0.9	550 pmol/30 mm^2 zone	–	–
CC[C@H](C)[C@H](NC(=O)[C@H](CC(C)C)NC(=O)[C@H](Cc1c[nH]c2ccccc12)NC(=O)[C@@H](N)CCCCN)C(=O)N[C@@H](CCN)C(=O)N[C@@H](CC(C)C)C(=O)N[C@@H](Cc1ccccc1)C(=O)N[C@@H](Cc1c[nH]cn1)C(=O)N[C@@H](CCCCN)C(=O)N[C@@H](CCCCN)C(N)=O [XMP.371] (H-KWLI[Dab]LFHKK-NH2)	0.9	843 pmol/30 mm^2 zone	–	C. albicans pmol/30 mm^2 zone ([2]; listed as XMP.371P′): 523 pmol/30 mm^2 zone
H-KKKWLIQLKK-NH2 [XMP.348]	5.5	284 pmol/30 mm^2 zone	–	–
CC[C@@H](C)[C@@H](NC(=O)[C@@H](CCC(N)=O)NC(=O)[C@@H](CC(C)C)NC(=O)[C@@H](Cc1ccccc1)NC(=O)[C@@H](Cc1c[nH]cn1)NC(=O)[C@@H](CCCCN)NC(=O)[C@@H](CCCCN)NC(C)=O)C(=O)N[C@H](CC(C)C)C(=O)N[C@H](Cc1c[nH]c2ccccc12)C(=O)N[C@H](CCCCN)C(N)=O [XMP.368]	25.2	744 pmol/30 mm^2 zone	–	half-life at 0.5 mg/mL (in vitro): 34.1 h
H-KKKWAIQLKK-NH2 [XMP.377]	1.8	146 pmol/30 mm^2 zone	–	–
H-KKWLIQLFHKP-NH2 [XMP.358]	1.6	550 pmol/30 mm^2 zone	–	–
H-KKLQLLLKK-NH2 [XMP.381]	0.8	391 pmol/30 mm^2 zone	–	–
CCCCCCCC(=O)N[C@@H](CCCCN)C(=O)N[C@@H](CCCCN)C(=O)N[C@@H](Cc1c[nH]c2ccccc12)C(=O)N[C@@H](C)C(=O)N[C@H](C(=O)N[C@@H](CCC(N)=O)C(=O)N[C@@H](CC(C)C)C(=O)N[C@@H](CCCCN)C(=O)N[C@@H](CCCCN)C(N)=O)[C@@H](C)CC [XMP.410] (Octanoyl-KKWAIQLKK-NH2)	2.9	599 pmol/30 mm^2 zone	>25 µg/mL	IC50 (toxicity/growth inhibition of peptide) (mouse RAW 264.7 cells; [4]): NA (NA for IC50 means no evidence of decreased RAW cell growth at up to 50 μg/ml)
H-KKLLLLLKK-NH2 [XMP.385]	2.7	127 pmol/30 mm^2 zone	–	–
CC[C@H](C)[C@H](NC(=O)[C@H](CC(C)C)NC(=O)[C@H](Cc1ccc(N)cc1)NC(=O)CNC(=O)[C@@H](NC(=O)[C@H](CCCCN)NC(=O)[C@H](CO)NC(=O)[C@@H](N)CCCCN)C(C)C)C(=O)N[C@@H](CCC(N)=O)C(=O)N[C@@H](CC(C)C)C(=O)N[C@@H](Cc1ccccc1)C(=O)N[C@@H](Cc1c[nH]cn1)C(=O)N[C@@H](CCCCN)C(=O)N[C@@H](CCCCN)C(N)=O [XMP.133] (H-KSKVG[Phe(4-NH2)]LIQLFHKK-NH2)	14	284 pmol/30 mm^2 zone	–	–
CC[C@H](C)[C@H](NC(=O)[C@H](CC(C)C)NC(=O)[C@H](Cc1c[nH]c2ccccc12)NC(=O)[C@H](CCCCN)NC(C)=O)C(=O)N[C@@H](CCCN)C(=O)N[C@@H](CC(C)C)C(=O)N[C@@H](Cc1ccccc1)C(=O)N[C@@H](Cc1c[nH]cn1)C(=O)N[C@@H](CCCCN)C(=O)N[C@@H](CCCCN)C(N)=O [XMP.370P] (Ac-KWLI[Orn]LFHKK-NH2)	–	–	NA (NA for EC50 means no evidence neutralization of LPS at up to 50 μg/ml)	IC50 (toxicity/growth inhibition of peptide) (mouse RAW 264.7 cells): >25 µg/mL
H-KKWLIQLFKK-NH2 [XMP.351]	0.4	385 pmol/30 mm^2 zone	–	–
Ac-PWLIQLFHKK-NH2 [XMP.356P]	–	–	2.72 ± 0.02 µg/mL	IC50 (toxicity/growth inhibition of peptide) (mouse RAW 264.7 cells): >25 µg/mL
CC[C@H](C)[C@H](NC(=O)[C@H](CC(C)C)NC(=O)[C@H](Cc1c[nH]c2ccccc12)NC(=O)[C@H](Cc1ccc(N)cc1)NC(=O)[C@@H](N)Cc1ccc(N)cc1)C(=O)N[C@@H](CCC(N)=O)C(=O)N[C@@H](CC(C)C)C(=O)N[C@@H](Cc1ccc(N)cc1)C(=O)N[C@@H](Cc1ccc(N)cc1)C(N)=O [XMP.340P] (H-[Phe(4-NH2)][Phe(4-NH2)]WLIQL[Phe(4-NH2)][Phe(4-NH2)]-NH2)	–	–	>50 µg/mL	IC50 (toxicity/growth inhibition of peptide) (mouse RAW 264.7 cells; [4]): NA (NA for IC50 means no evidence of decreased RAW cell growth at up to 50 μg/ml)
PWAIQLFHKK-NH2 (C-terminus assumed) [XMP.387P]	–	–	15.53 ± 2.18 µg/mL	IC50 (toxicity/growth inhibition of peptide) (mouse RAW 264.7 cells; [4]): NA (NA for IC50 means no evidence of decreased RAW cell growth at up to 50 μg/ml)
H-KWLIQLFHKP-NH2 [XMP.357]	0.8	204 pmol/30 mm^2 zone	–	–
H-KPWLIQLFHKK-NH2 [XMP.390P]	–	–	3.97 ± 0.21 µg/mL	IC50 (toxicity/growth inhibition of peptide) (mouse RAW 264.7 cells; [4]): NA (NA for IC50 means no evidence of decreased RAW cell growth at up to 50 μg/ml)
CC[C@H](C)[C@H](NC(=O)[C@H](CC(C)C)NC(=O)[C@@H](Cc1ccc2ccccc2c1)NC(=O)[C@H](CCCCN)NC(=O)[C@@H](N)CCCCN)C(=O)N[C@@H](CC(C)C)C(=O)N[C@@H](CC(C)C)C(=O)N[C@@H](CCCCN)C(=O)N[C@@H](CCCCN)C(N)=O [XMP.347P] (H-KK[d2Nal]LILLKK-NH2)	–	–	1.65 ± 0.09 µg/mL	IC50 (toxicity/growth inhibition of peptide) (mouse RAW 264.7 cells): >25 µg/mL
CCCCCCCCCCCC(=O)N[C@H](CCCCN)C(=O)N[C@H](Cc1c[nH]c2ccccc12)C(=O)N[C@H](CC(C)C)C(=O)N[C@@H](C(=O)N[C@H](CCC(N)=O)C(=O)N[C@H](CC(C)C)C(=O)N[C@H](Cc1ccccc1)C(=O)N[C@H](Cc1c[nH]cn1)C(=O)N[C@H](CCCCN)C(=O)N[C@H](CCCCN)C(N)=O)[C@H](C)CC [XMP.415]	–	–	1.61 ± 0.03 µg/mL	IC50 (toxicity/growth inhibition of peptide) (mouse RAW 264.7 cells): 6.80 ± 0.14 µg/mL
H-KVPWLIQLFHKK-NH2 [XMP.392P]	–	–	24.03 ± 2.67 µg/mL	IC50 (toxicity/growth inhibition of peptide) (mouse RAW 264.7 cells; [4]): NA (NA for IC50 means no evidence of decreased RAW cell growth at up to 50 μg/ml)
CC[C@H](C)[C@H](NC(=O)[C@H](CC(C)C)NC(=O)[C@H](Cc1c[nH]c2ccccc12)NC(=O)[C@H](CCCN)NC(=O)[C@@H](N)CCCN)C(=O)N[C@@H](CCC(N)=O)C(=O)N[C@@H](CC(C)C)C(=O)N[C@@H](CCCN)C(=O)N[C@@H](CCCN)C(N)=O [XMP.338]	4.7	1,194 pmol/30 mm^2 zone	–	–
